The values below are quoted from earlier work in publication PMC7559897, “Designed Antimicrobial Peptides Against Trauma-Related Cutaneous Invasive Fungal Wound Infections” (Journal of Fungi, 2020).

For the data set, the system named is S. aureus. The following applies: subinhibitory concentrations, growth at higher concentrations; cited from earlier work. From the text:
The rapid destruction of pathogenic cells by dAMPs infers a theoretical reduced likelihood of developing bacterial resistance. However, to confirm this, dAMPs were serially passaged against Candida and against both P. aeruginosa and S. aureus at subinhibitory concentrations to ascertain whether resistance, assessed by growth at higher concentrations, occurs. Resistance was not observed.

Each structure is given as a SMILES string.

For `CCC[C@@H]1C[C@@H](C(=O)N[C@@H]([C@H]2O[C@H](SC)[C@H](O)[C@@H](O)[C@H]2O)[C@H](C)Cl)N(C)C1` [clindamycin], the “resistance during serial passaging against S. aureus” value was “strong resistance”.
